According to patent US12428370B2, “Haloallylamine dual amine oxidase inhibitors” (Syntara Limited, priority 2020, dated 2025):
Structures can show the parent of a compound that is named as a salt.

Assays:
phospholipidosis = assay: Phospholipidosis cell-based fluorescence assay; details: concentrations up to 100 μM
Procedure: Assessment of the Potential of Compound 1 to Induce Phospholipidosis in a Cell-Based Fluorescence Assay.
Compound 1 was tested in vitro for the potential to induce phospholipidosis according to the method outlined by Fujimura et. al. (Experimental and Toxicologic Pathology, 2007, 58, 375-382) at concentrations up to 100 μM.

[1] = biological target: T1, Adipose Tissue SSAO/VAP-1 (Mus musculus, UniProt O70423); assay: Mouse adipose tissue SSAO/VAP-1 activity after oral administration; type: in vivo; details: for SSAO/VAP-1 activity in adipose tissue: C57BL/6J mice, single oral dose, FIG. 8
T1 construct: from tissue; host or cells: abdominal fat of C57BL/6J and mdx (C57BL/10ScSn-Dmdmdx/J) mice
T1 sequence (O70423 1-765): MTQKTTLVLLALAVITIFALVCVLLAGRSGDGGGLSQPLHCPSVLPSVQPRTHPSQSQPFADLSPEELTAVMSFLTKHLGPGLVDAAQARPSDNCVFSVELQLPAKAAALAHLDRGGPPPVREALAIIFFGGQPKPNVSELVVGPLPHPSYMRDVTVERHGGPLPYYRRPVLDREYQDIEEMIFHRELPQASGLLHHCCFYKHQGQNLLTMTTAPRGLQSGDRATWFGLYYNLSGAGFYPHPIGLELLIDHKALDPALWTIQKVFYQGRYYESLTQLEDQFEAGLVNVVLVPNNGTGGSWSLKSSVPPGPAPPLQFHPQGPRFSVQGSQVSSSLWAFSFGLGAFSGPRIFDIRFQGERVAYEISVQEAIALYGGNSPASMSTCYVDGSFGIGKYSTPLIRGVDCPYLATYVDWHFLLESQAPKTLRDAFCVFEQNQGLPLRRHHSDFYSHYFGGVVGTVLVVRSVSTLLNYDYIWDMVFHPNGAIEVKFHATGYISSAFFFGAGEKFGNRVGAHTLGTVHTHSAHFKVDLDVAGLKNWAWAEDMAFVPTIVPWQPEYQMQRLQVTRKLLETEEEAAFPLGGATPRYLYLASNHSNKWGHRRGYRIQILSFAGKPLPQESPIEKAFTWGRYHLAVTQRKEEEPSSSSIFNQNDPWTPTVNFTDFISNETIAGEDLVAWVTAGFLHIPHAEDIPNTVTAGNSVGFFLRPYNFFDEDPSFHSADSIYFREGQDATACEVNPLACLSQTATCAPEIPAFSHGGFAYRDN
Procedure: Mice were orally administered the compound under study and sacrificed at various time points and abdominal fat, muscle and heart tissue collected.
SSAO/VAP-1 activity in the adipose tissue was determined as described in EXAMPLE 13.
Activity of the treated samples was analyzed using the fluorometric method described in EXAMPLE 9 for SSAO/VAP-1 activity, EXAMPLE 10 for MAO-B and EXAMPLE 11 for MAO-A activity (FIG. 8 and FIG. 9).

recombinant human MAO-A = biological target: T2, recombinant human MAO-A (Homo sapiens, UniProt P21397); assay: Inhibition of human recombinant MAO-A; type: biochemical; details: incubation time of 2 hours, tyramine 100 μM
T2 construct: purchased Sigma Aldrich
T2 sequence (P21397 1-527): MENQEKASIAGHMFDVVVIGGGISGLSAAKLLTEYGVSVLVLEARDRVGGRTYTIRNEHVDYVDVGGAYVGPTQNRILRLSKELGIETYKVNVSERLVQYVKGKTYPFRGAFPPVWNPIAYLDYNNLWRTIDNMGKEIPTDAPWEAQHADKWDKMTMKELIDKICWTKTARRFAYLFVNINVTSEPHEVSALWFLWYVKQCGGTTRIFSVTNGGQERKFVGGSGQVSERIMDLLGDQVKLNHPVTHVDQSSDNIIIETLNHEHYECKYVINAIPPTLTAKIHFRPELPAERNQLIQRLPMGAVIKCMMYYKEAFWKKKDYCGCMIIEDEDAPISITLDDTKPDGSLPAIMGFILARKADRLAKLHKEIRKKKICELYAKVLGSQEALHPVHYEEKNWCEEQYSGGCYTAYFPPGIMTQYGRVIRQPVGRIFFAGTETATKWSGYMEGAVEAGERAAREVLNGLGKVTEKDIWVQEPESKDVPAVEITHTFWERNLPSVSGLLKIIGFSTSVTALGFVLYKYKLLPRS
Procedure: Method to Determine the Ability of Compounds of Formula I to Inhibit Human Recombinant MAO-A
The selectivity of the compounds of this invention was tested by determining their ability to inhibit MAO-A activity in vitro, using recombinant human MAO-A (0.003 mg/mL; Sigma Aldrich). The assay was performed in a similar way as for human SSAO/VAP-1 (EXAMPLE 9) except, the substrate tyramine was used at 100 μM in place of benzylamine and the assay was run after an incubation time of 2 hours.

[2] = tested on: Salmonella typhimurium strains TA98, TA100 and Escherichia. coli WP2 uvrA pKM101; assay: Miniaturized bacterial reverse mutagenicity screening assay; type: cell-based; details: 7.81-1000 μg/well, presence and absence of S9 metabolic activation
Procedure: Compound 1 was tested for mutagenic potential in a miniaturized reverse mutation assay using Salmonella typhimurium strains TA98, TA100 and Escherichia. coli WP2 uvrA pKM101 in the presence and absence of a metabolic activation system. The test article was formulated in dimethylsulfoxide (DMSO) at nominal concentration of 50 mg/mL and serial dilutions were made from this stock solution. Final dosing concentrations were 1000, 500, 250, 125, 62.5, 31.3, 15.6 and 7.81 μg/well for the test article. Metabolic activation was provided using an S9 mix containing 10% v/v Aroclor-1254-induced rat liver S9 (Regensys System reagents, Moltox, Boone, NC).

**Q.** Which results are given for `N#Cc1ccc(OC/C(=C/F)CN)cc1` [Compound 1, (E)-4-((2-(aminomethyl)-3-fluoroallyl)oxy) benzonitrile]?
**A.** effect on cell viability (phospholipidosis): no effect; effect on the cellular phenotype (phospholipidosis) (phospholipidosis): no effect; SSAO/VAP-1 activity in adipose tissue ([1]; 24-hour time point): inhibition of the enzyme activity is still evident; SSAO/VAP-1 activity in adipose tissue ([1]; various doses, 4 hours after administration): dose-related reduction; adipose tissue SSAO/VAP-1 activity ([1]; mdx mice (C57BL/10ScSn-Dmdmdx/J), oral, FIG. 10): completely inhibits; IC50 (recombinant human MAO-A): > 30 µM; mutagenic potential [2]: did not induce a response indicative of mutagenic potential

**Q.** How did the IC50 (recombinant human MAO-A) turn out when `NC/C(=C\F)C1Cc2ccccc2O1` (single isomer, unassigned; (-)) [PXS-5131, (−)-(E)-2-(2,3-Dihydrobenzofuran-2-Yl)-3-Fluoroprop-2-En-1-Amine Hydrochloride] was run?
**A.** The IC50 was 0.3 to 3 µM.
